# Assay results reported in patent US20170050957A1, “4-AMINO-6-(HETEROCYCLIC)PICOLINATES AND 6-AMINO-2-(HETEROCYCLIC)PYRIMIDINE-4-CARBOXYLATES AND THEIR USE AS HERBICIDES” (Dow AgroSciences LLC, priority 2013, published 2017).
# Test system: Wheat and Barley and test plant species
# Assay: Post-emergent Test III, herbicidal activity in wheat and barley (Table 17; visual injury, GR20/GR50/GR80/GR90)
# Assay type: in vivo
# Conditions: 21 d; for Visual Growth Reduction (%) 21 Days After Application, CIRAR / Visual Growth Reduction (%) 21 Days After Application, GALAP / Visual Growth Reduction (%) 21 Days After Application, HORVS / Visual Growth Reduction (%) 21 Days After Application, KCHSC / Visual Growth Reduction (%) 21 Days After Application, LAMPU / Visual Growth Reduction (%) 21 Days After Application, MATCH / Visual Growth Reduction (%) 21 Days After Application, PAPRH / Visual Growth Reduction (%) 21 Days After Application, SASKR / Visual Growth Reduction (%) 21 Days After Application, SINAR / Visual Growth Reduction (%) 21 Days After Application, TRZAS / Visual Growth Reduction (%) 21 Days After Application, VERPE / Visual Growth Reduction (%) 21 Days After Application, VIOTR: post-emergent
# Summary of the method: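 Greenhouse-grown plants at second to third true leaf stage (about 18/17° C day/night, 14 h photoperiod) sprayed post-emergence with compound in acetone/DMSO/water-based mix with Agri-Dex crop oil and X-77 surfactant at 187 L/ha, at highest rate and 1/2× to 1/16× dilutions. Visual injury scored 0–100% versus untreated plants after 21 d; GR20/GR50/GR80/GR90 from probit analysis.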
smiles,measurement,setting,value
"COC(=O)c1nc(-c2ccc3cc[nH]c3c2F)cc(N)c1Cl [Compound 1.23, Methyl 4-amino-3-chloro-6-(7-fluoro-1H-indol-6-yl)picolinate]","Visual Growth Reduction (%) 21 Days After Application, CIRAR","CIRAR, 17.5 g ai/ha",G (0-29)
same,"Visual Growth Reduction (%) 21 Days After Application, CIRAR","CIRAR, 35 g ai/ha",G (0-29)
same,"Visual Growth Reduction (%) 21 Days After Application, CIRAR","CIRAR, 70 g ai/ha",G (0-29)
same,"GR50, CIRAR","CIRAR, dose for 50 percent growth reduction, probit analysis",>140 g ai/ha
same,"GR80, CIRAR","CIRAR, dose for 80 percent growth reduction, probit analysis",>140 g ai/ha
same,"GR90, CIRAR","CIRAR, dose for 90 percent growth reduction, probit analysis",>140 g ai/ha
same,"Visual Growth Reduction (%) 21 Days After Application, GALAP","GALAP, 17.5 g ai/ha",A (95-100)
same,"Visual Growth Reduction (%) 21 Days After Application, GALAP","GALAP, 35 g ai/ha",A (95-100)
same,"Visual Growth Reduction (%) 21 Days After Application, GALAP","GALAP, 70 g ai/ha",A (95-100)
same,"GR50, GALAP","GALAP, dose for 50 percent growth reduction, probit analysis",1 g ai/ha
same,"GR80, GALAP","GALAP, dose for 80 percent growth reduction, probit analysis",4 g ai/ha
same,"GR90, GALAP","GALAP, dose for 90 percent growth reduction, probit analysis",7 g ai/ha
same,"Visual Growth Reduction (%) 21 Days After Application, HORVS","HORVS, 17.5 g ai/ha",G (0-29)
same,"Visual Growth Reduction (%) 21 Days After Application, HORVS","HORVS, 35 g ai/ha",G (0-29)
same,"Visual Growth Reduction (%) 21 Days After Application, HORVS","HORVS, 70 g ai/ha",G (0-29)
same,"GR20, HORVS","HORVS, dose for 20 percent growth reduction, probit analysis",>140 g ai/ha
same,"Visual Growth Reduction (%) 21 Days After Application, KCHSC","KCHSC, 17.5 g ai/ha",F (30-44)
same,"Visual Growth Reduction (%) 21 Days After Application, KCHSC","KCHSC, 35 g ai/ha",E (45-59)
same,"Visual Growth Reduction (%) 21 Days After Application, KCHSC","KCHSC, 70 g ai/ha",D (60-74)
same,"GR50, KCHSC","KCHSC, dose for 50 percent growth reduction, probit analysis",35 g ai/ha
same,"GR80, KCHSC","KCHSC, dose for 80 percent growth reduction, probit analysis",110 g ai/ha
same,"GR90, KCHSC","KCHSC, dose for 90 percent growth reduction, probit analysis",>140 g ai/ha
same,"Visual Growth Reduction (%) 21 Days After Application, LAMPU","LAMPU, 17.5 g ai/ha",B (85-94)
same,"Visual Growth Reduction (%) 21 Days After Application, LAMPU","LAMPU, 35 g ai/ha",A (95-100)
same,"Visual Growth Reduction (%) 21 Days After Application, LAMPU","LAMPU, 70 g ai/ha",A (95-100)
same,"GR50, LAMPU","LAMPU, dose for 50 percent growth reduction, probit analysis",3 g ai/ha
same,"GR80, LAMPU","LAMPU, dose for 80 percent growth reduction, probit analysis",6 g ai/ha
same,"GR90, LAMPU","LAMPU, dose for 90 percent growth reduction, probit analysis",9 g ai/ha
same,"Visual Growth Reduction (%) 21 Days After Application, MATCH",17.5 g ai/ha,G (0-29)
same,"Visual Growth Reduction (%) 21 Days After Application, MATCH",35 g ai/ha,G (0-29)
same,"Visual Growth Reduction (%) 21 Days After Application, MATCH",70 g ai/ha,G (0-29)
same,"Visual Growth Reduction (%) 21 Days After Application, PAPRH","PAPRH, 17.5 g ai/ha",D (60-74)
same,"Visual Growth Reduction (%) 21 Days After Application, PAPRH","PAPRH, 35 g ai/ha",A (95-100)
same,"Visual Growth Reduction (%) 21 Days After Application, PAPRH","PAPRH, 70 g ai/ha",A (95-100)
same,"GR50, PAPRH","PAPRH, dose for 50 percent growth reduction, probit analysis",11 g ai/ha
same,"GR80, PAPRH","PAPRH, dose for 80 percent growth reduction, probit analysis",17 g ai/ha
same,"GR90, PAPRH","PAPRH, dose for 90 percent growth reduction, probit analysis",22 g ai/ha
same,"Visual Growth Reduction (%) 21 Days After Application, SASKR","SASKR, 17.5 g ai/ha",F (30-44)
same,"Visual Growth Reduction (%) 21 Days After Application, SASKR","SASKR, 35 g ai/ha",E (45-59)
same,"Visual Growth Reduction (%) 21 Days After Application, SASKR","SASKR, 70 g ai/ha",C (75-84)
same,"GR50, SASKR","SASKR, dose for 50 percent growth reduction, probit analysis",29 g ai/ha
same,"GR80, SASKR","SASKR, dose for 80 percent growth reduction, probit analysis",90 g ai/ha
same,"GR90, SASKR","SASKR, dose for 90 percent growth reduction, probit analysis",>140 g ai/ha
same,"Visual Growth Reduction (%) 21 Days After Application, SINAR","SINAR, 17.5 g ai/ha",C (75-84)
same,"Visual Growth Reduction (%) 21 Days After Application, SINAR","SINAR, 35 g ai/ha",C (75-84)
same,"Visual Growth Reduction (%) 21 Days After Application, SINAR","SINAR, 70 g ai/ha",A (95-100)
same,"GR50, SINAR","SINAR, dose for 50 percent growth reduction, probit analysis",3 g ai/ha
same,"GR80, SINAR","SINAR, dose for 80 percent growth reduction, probit analysis",14 g ai/ha
same,"GR90, SINAR","SINAR, dose for 90 percent growth reduction, probit analysis",32 g ai/ha
same,"Visual Growth Reduction (%) 21 Days After Application, TRZAS","TRZAS, 17.5 g ai/ha",G (0-29)
same,"Visual Growth Reduction (%) 21 Days After Application, TRZAS","TRZAS, 35 g ai/ha",G (0-29)
same,"Visual Growth Reduction (%) 21 Days After Application, TRZAS","TRZAS, 70 g ai/ha",G (0-29)
same,"GR20, TRZAS","TRZAS, dose for 20 percent growth reduction, probit analysis",66 g ai/ha
same,"Visual Growth Reduction (%) 21 Days After Application, VERPE","VERPE, 17.5 g ai/ha",B (85-94)
same,"Visual Growth Reduction (%) 21 Days After Application, VERPE","VERPE, 35 g ai/ha",B (85-94)
same,"Visual Growth Reduction (%) 21 Days After Application, VERPE","VERPE, 70 g ai/ha",A (95-100)
same,"GR50, VERPE","VERPE, dose for 50 percent growth reduction, probit analysis",1 g ai/ha
same,"GR80, VERPE","VERPE, dose for 80 percent growth reduction, probit analysis",8 g ai/ha
same,"GR90, VERPE","VERPE, dose for 90 percent growth reduction, probit analysis",21 g ai/ha
same,"Visual Growth Reduction (%) 21 Days After Application, VIOTR","VIOTR, 17.5 g ai/ha",G (0-29)
same,"Visual Growth Reduction (%) 21 Days After Application, VIOTR","VIOTR, 35 g ai/ha",E (45-59)
same,"Visual Growth Reduction (%) 21 Days After Application, VIOTR","VIOTR, 70 g ai/ha",D (60-74)
same,"GR50, VIOTR","VIOTR, dose for 50 percent growth reduction, probit analysis",44 g ai/ha
same,"GR80, VIOTR","VIOTR, dose for 80 percent growth reduction, probit analysis",119 g ai/ha
same,"GR90, VIOTR","VIOTR, dose for 90 percent growth reduction, probit analysis",>140 g ai/ha
